# Laboratory results reported in ChEMBL document CHEMBL1201862, “PubChem BioAssay data set” (2004).
# The source made the active and inactive calls.
# Key:
# [1] = target: Induced myeloid leukemia cell differentiation protein Mcl-1 (Homo sapiens, UniProt Q07820); type: functional
# [2] = target: E3 ubiquitin-protein ligase XIAP (Homo sapiens, UniProt P98170); assay: Counter Screen using XIAP-Bir3 for Chemical Antagonists of Bir1/2 domains of IAP-family anti-apoptotic proteins. [Related pubchem assays (depositor defined):AID1018, AID1449, AID1514, AID1638, AID1749, AID1750, AID488957, AID488963]
# [3] = target: Eukaryotic translation initiation factor 4E (Mus musculus, UniProt P63073); assay: blockers of eIF4G binding by eIF4E – biochemical, TR-FRET, dose response (AID 855); type: functional;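 also: potency for disrupting eIF4E binding to eIF4GI seen as loss of FRET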
# Protein Rev = Protein Rev (Human immunodeficiency virus type 1 group M subtype B (isolate HXB2)(HIV-1), UniProt P04618); assay: blockers of HIV Rev/RRE RNA complex – biochemical, fluorescence polarization, HIV-1, dose response (AID 434976); design: species or system Human immunodeficiency virus 1
# Protein RecA = target: T1, Protein RecA (Mycobacterium tuberculosis, UniProt P9WHJ3); assay: Fluorescence Cell-Free Homogeneous Dose Retest to Identify Inhibitors of RecA-Intein Splicing Activity. [Related pubchem assays (depositor defined):AID2097, AID2223, AID489010, AID492950]; type: functional
# T1 sequence (P9WHJ3 whole entry): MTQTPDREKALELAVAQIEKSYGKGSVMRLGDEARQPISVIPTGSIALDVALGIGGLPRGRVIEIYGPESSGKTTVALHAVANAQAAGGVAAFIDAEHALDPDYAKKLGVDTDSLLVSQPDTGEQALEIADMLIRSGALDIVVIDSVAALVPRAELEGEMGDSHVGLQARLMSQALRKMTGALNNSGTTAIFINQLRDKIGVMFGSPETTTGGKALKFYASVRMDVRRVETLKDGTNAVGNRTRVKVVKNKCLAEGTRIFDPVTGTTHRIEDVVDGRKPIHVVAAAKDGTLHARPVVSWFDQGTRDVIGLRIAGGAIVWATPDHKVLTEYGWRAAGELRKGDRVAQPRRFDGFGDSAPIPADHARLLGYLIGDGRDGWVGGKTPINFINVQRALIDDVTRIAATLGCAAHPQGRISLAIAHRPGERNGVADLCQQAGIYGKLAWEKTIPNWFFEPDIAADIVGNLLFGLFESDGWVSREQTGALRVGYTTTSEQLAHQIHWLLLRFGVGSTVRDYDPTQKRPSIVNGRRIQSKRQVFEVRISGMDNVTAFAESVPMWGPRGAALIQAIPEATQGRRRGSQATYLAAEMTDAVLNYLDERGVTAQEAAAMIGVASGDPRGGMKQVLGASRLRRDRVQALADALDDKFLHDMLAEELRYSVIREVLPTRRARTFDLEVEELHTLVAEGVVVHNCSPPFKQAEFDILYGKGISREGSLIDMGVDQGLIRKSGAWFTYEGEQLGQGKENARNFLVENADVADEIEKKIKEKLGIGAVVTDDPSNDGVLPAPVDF
# [4] = target: T2, Polyadenylate-binding protein 1 (Homo sapiens, UniProt P11940); assay: MLLE domain peptide-binding blockers, IC50 – biochemical, fluorescence polarization, FITC-PAM2 peptide, dose response (AID 602259); type: functional; settings: read-out: IC50_Mean
# [5] = target: T3, Replicative DNA helicase DnaB (Mycobacterium tuberculosis, UniProt P9WMR3); assay: DnaB intein splicing inhibitors, dose response, biochemical, cell-free fluorescence (AID 449749); type: functional
# T3 sequence (P9WMR3 whole entry): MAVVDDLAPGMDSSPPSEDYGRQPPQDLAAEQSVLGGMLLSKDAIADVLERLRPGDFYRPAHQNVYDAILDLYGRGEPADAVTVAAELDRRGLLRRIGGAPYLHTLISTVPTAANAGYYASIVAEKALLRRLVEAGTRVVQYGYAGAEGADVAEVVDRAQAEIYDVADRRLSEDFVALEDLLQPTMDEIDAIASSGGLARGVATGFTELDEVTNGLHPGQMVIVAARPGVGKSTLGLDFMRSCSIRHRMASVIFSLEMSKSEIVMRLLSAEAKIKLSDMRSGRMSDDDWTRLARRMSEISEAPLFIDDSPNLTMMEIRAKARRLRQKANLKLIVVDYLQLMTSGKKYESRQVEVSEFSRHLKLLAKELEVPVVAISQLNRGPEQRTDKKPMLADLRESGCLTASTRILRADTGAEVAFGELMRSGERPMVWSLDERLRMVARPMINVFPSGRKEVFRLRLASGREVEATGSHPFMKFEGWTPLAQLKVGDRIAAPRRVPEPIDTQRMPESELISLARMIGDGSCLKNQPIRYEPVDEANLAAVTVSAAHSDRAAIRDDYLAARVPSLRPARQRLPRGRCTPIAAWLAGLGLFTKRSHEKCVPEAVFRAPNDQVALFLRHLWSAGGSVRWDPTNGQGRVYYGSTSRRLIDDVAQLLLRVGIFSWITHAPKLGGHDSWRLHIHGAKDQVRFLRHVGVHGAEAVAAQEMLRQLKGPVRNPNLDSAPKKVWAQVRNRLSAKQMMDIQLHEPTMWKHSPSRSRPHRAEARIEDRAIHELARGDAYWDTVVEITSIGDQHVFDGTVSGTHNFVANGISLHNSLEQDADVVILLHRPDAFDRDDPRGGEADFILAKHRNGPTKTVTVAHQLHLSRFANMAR
# [6] = target: Female germline-specific tumor suppressor gld-1 (Caenorhabditis elegans, UniProt Q17339); assay: blockers of GLD-1/TGE RNA complex formation – biochemical, fluorescence polarization, C. elegans, dose response (AID 2802);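 also: fluorescence polarization of labeled TGE RNA bound by purified gld-1 protein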
# [7] = target: T2, Polyadenylate-binding protein 1; assay: MLLE binding blockers, Cy5 peptide tracer – biochemical, fluorescence polarization, Cy5-PAM2 peptide, secondary, miRNA deadenylation inhibitor project, dose response (AID 602260); type: functional; settings: read-out: IC50_Mean
# [8] = target: Phosphoethanolamine/phosphocholine phosphatase (Homo sapiens, UniProt Q8TCT1); assay: SAR assay for compounds that inhibit PHOSPHO1. [Related pubchem assays (depositor defined):AID1545, AID1565, AID1574]
# [9] = target: T4, Mannose-6-phosphate isomerase (Homo sapiens, UniProt P34949); assay: phosphomannose isomerase inhibition – biochemical, fluorescence intensity, confirmation (AID 1535)
# T4 sequence (P34949 whole entry): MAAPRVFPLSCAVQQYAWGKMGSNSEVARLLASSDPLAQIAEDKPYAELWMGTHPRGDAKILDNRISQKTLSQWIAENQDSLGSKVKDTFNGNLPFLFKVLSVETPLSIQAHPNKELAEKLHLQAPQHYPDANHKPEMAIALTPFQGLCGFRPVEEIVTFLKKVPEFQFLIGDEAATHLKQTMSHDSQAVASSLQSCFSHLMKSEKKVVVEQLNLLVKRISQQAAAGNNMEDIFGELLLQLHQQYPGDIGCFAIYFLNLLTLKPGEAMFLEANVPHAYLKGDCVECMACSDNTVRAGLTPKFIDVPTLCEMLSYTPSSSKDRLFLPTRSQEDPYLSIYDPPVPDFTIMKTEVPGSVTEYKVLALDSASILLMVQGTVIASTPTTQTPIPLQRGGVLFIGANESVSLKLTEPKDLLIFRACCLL
# Phosphomannomutase 2 = Phosphomannomutase 2 (Homo sapiens, UniProt O15305); assay: Counter screen SAR assay for PMM2 inhibitors via a fluorescence intensity assay. [Related pubchem assays (depositor defined):AID1545, AID1574]
# [10] = decrease of insulin promoter-GFP reporter – imaging, high-content screening, mouse beta cells (AID 1628); type: functional; settings: MIN6
# [11] = MIN6 cell viability loss – mouse insulinoma, cytotoxicity control, dose response (AID 2122); type: functional;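 also: confirmatory high-throughput counterscreen run to flag cytotoxic compounds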
# cells [12] = type: functional, cell-based
# INS1 = assay: INS-1E survival protection against cytokine death – cell-based, luminescence, retest, dose response (AID 449756); type: functional; settings: Rattus norvegicus;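 also: cell death triggered by IL-1 beta plus TNF-alpha plus IFN-gamma mixture; protective hits raise ATP signal compared with cytokine alone wells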
# [13] = target: Heat shock protein HSP 90-alpha (Homo sapiens, UniProt P07900); type: functional, organism-based
# cells [14] = type: functional, cell-based; remark: listed apart in the source
# [15] = target: ATP-dependent molecular chaperone HSP82 (Candida albicans (strain WO-1) (Yeast), UniProt C4YTQ8); assay: steroid-induced GRE reporter decrease in yeast – S. cerevisiae, luminescence, Hsp90 inhibitor project, dose response (AID 2400); type: functional, cell-based;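 also: beta-galactosidase luminescence from glucocorticoid response element reporter as proxy for Hsp90 function; inhibitor potency where signal loss means Hsp90 inhibition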
# [16] = target: T5, Serine/threonine-protein phosphatase (Candida dubliniensis (strain CD36 / CBS 7987 / NCPF 3949 / NRRLY-17841) (Yeast), UniProt B9W6M3); assay: blockers of CaCl2-induced CDRE-lacZ signaling – S. cerevisiae, luminescence, secondary, dose response (AID 2388); type: functional, cell-based;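 also: yeast reporter cells carrying a calcineurin-responsive lacZ construct stimulated with calcium chloride; luminescent beta-galactosidase reporter signal in whole cells rather than isolated phosphatase activity; potency for inhibition where a drop in reporter signal means calcineurin blockade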
# T5 sequence (B9W6M3 whole entry): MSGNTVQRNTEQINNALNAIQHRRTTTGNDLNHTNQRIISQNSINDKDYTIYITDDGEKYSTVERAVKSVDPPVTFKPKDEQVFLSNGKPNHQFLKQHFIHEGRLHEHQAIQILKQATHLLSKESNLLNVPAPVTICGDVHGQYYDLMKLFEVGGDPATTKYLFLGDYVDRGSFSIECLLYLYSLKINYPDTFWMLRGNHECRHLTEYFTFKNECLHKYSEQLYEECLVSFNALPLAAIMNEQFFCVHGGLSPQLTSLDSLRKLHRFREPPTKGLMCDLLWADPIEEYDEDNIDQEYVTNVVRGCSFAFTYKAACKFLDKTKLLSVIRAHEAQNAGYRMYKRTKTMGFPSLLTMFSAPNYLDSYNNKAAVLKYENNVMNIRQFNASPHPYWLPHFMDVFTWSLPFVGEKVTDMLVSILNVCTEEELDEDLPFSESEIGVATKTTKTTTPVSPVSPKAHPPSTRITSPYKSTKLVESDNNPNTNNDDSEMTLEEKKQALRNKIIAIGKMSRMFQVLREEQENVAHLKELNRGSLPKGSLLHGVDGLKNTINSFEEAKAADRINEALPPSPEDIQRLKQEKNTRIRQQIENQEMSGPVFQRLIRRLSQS
# [17] = fluconazole-exposed Candida albicans growth modulators – fluorescence, retest, confirmation (AID 2467); type: functional, cell-based
# [18] = NIH-3T3 fibroblast cytotoxicity, dose response, cytotoxicity control, cell-based, fluorescence, Alamar Blue, secondary assay (AID 2327); type: functional;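 also: NIH-3T3 mouse fibroblasts cultured with fluconazole at 8 µg/mL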
# [19] = Trypanosoma cruzi growth suppression in host cells – NIH3T3 host cells, beta-gal luminescence, confirmation (AID 2044); type: functional, cell-based;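 also: intracellular parasites grown in NIH/3T3 mouse fibroblasts as host cells; luminescent beta-galactosidase reporter signal from transgenic T. cruzi replicating inside host cells; inhibitors lower the luminescence signal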
# Exodeoxyribonuclease V = Exodeoxyribonuclease V (Escherichia coli (strain K12), UniProt P04993+P07648+P08394); assay: RecBCD inhibition via phage-restricted bacterial growth – absorbance, V66 E. coli, mutant T4 phage, counter-screen for AddAB inhibitor project, dose response (AID 492957); type: functional, cell-based, Escherichia coli str. K-12 substr. MG1655
# Vero = assay: cells; type: functional; settings: Chlorocebus sabaeus
# [20] = NIH3T3 cell viability loss – ATP luminescence, mouse fibroblasts, counter-screen, dose response (AID 2010); type: functional, cell-based;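 also: cells exposed to compound for about 90 hours before reading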
# [21] = Counterscreen for AddAB inhibitors: absorbance-based bacterial cell-based high throughput dose response assay for inhibitors of bacterial viability. [Related pubchem assays (depositor defined):AID435030, AID449728, AID449731, AID488942, AID488955, AID488956]; type: functional
# T2 sequence (P11940 whole entry, the tested form may be a part): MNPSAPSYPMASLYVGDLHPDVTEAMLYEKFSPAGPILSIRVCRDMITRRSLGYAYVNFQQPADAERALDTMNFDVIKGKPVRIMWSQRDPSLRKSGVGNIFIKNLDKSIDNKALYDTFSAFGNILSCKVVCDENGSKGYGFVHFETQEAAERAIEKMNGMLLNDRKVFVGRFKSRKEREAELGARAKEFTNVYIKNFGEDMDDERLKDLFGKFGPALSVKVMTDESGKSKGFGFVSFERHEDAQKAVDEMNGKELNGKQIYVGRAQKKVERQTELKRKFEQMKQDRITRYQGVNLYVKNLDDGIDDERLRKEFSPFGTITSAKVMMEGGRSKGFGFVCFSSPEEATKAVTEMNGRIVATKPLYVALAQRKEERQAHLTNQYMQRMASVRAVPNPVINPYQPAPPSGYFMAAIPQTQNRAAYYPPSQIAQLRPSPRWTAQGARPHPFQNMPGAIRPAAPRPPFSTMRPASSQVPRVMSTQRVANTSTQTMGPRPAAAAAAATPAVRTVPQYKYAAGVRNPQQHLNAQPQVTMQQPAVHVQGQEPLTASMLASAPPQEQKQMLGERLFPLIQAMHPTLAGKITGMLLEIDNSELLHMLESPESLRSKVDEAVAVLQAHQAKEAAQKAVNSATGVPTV
# Chain of E3 ubiquitin-protein ligase XIAP (P98170 whole entry): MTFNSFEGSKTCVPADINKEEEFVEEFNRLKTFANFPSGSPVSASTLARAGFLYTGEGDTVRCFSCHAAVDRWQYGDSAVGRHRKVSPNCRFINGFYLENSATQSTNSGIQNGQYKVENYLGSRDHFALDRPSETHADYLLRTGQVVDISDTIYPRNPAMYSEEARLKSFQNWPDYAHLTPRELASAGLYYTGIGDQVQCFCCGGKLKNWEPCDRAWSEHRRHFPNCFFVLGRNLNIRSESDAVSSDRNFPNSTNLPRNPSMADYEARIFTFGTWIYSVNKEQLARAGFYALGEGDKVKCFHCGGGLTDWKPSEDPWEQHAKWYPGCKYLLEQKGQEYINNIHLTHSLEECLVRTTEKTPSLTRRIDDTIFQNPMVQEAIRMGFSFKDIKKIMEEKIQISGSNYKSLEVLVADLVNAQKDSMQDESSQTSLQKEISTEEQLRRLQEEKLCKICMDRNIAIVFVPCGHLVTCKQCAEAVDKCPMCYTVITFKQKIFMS
# Chain of Female germline-specific tumor suppressor gld-1 (Q17339 whole entry): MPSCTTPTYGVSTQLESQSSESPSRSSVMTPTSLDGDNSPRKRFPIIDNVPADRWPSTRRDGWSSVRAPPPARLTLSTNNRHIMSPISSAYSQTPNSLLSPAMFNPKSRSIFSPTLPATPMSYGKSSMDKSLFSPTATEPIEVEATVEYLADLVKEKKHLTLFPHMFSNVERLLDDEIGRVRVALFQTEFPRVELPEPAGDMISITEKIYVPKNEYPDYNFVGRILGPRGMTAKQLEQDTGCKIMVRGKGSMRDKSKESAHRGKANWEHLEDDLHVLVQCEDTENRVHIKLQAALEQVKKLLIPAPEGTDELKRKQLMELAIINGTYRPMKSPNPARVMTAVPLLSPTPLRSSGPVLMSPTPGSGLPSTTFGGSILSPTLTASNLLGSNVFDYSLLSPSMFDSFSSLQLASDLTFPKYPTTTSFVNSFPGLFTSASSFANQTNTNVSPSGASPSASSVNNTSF
# Chain of Phosphomannomutase 2 (O15305 whole entry): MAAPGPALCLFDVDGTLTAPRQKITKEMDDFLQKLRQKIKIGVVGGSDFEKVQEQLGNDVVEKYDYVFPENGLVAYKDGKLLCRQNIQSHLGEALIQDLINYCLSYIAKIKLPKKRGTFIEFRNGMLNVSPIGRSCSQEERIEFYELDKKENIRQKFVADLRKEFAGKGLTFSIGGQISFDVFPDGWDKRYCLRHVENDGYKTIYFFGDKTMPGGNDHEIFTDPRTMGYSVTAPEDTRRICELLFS
# Chain of Induced myeloid leukemia cell differentiation protein Mcl-1 (Q07820 whole entry): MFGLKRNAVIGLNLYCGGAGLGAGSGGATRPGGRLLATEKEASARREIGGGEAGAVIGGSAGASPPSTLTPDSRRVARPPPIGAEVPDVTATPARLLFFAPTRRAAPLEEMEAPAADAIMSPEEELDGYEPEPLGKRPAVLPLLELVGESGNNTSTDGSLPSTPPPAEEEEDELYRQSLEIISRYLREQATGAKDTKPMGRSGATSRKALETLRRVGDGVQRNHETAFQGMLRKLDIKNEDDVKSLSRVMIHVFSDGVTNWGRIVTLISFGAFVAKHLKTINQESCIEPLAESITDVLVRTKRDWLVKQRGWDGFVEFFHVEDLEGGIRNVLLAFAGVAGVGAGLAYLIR
# Chain of Eukaryotic translation initiation factor 4E (P63073 whole entry): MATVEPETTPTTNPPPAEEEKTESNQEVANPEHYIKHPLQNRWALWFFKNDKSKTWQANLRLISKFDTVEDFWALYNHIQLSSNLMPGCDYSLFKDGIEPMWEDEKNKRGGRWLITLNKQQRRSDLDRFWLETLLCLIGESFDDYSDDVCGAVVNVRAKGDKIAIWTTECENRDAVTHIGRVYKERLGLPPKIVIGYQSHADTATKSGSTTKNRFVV
# Chain of ATP-dependent molecular chaperone HSP82 (C4YTQ8 whole entry): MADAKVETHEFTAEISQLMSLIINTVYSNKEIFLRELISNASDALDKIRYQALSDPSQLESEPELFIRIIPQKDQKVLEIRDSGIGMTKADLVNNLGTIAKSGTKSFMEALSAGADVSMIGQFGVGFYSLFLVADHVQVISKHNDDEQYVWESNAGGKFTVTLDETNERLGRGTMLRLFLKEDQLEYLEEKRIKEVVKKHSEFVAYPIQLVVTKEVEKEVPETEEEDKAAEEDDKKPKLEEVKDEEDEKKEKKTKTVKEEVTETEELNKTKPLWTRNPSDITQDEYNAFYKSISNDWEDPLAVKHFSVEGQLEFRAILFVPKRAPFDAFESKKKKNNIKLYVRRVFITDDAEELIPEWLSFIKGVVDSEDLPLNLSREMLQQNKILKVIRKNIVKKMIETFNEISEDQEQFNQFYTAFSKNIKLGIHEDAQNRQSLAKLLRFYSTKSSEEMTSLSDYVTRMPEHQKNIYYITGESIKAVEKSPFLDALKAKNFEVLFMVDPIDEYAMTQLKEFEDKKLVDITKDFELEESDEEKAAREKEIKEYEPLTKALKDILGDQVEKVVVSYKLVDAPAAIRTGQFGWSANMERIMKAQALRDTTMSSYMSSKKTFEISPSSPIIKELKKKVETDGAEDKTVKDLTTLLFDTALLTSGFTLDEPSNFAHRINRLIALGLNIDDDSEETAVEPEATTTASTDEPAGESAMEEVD
# Chain of Phosphoethanolamine/phosphocholine phosphatase (Q8TCT1 whole entry): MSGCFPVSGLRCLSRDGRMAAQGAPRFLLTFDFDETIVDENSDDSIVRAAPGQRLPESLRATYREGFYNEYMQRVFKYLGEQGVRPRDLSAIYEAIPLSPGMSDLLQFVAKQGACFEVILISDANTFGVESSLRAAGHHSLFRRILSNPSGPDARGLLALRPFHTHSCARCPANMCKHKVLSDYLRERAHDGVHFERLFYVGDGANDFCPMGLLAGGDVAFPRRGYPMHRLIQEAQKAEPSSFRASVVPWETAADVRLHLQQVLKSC
# Chain of Protein Rev (P04618 whole entry): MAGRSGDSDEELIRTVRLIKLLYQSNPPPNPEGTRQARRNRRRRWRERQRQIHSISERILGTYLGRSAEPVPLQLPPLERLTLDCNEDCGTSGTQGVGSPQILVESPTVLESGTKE
compound,measurement,setting,value
Nc1ccc(O)c2c1C(=O)c1ccccc1C2=O,IC50,[1],4.35 µM (active)
same,IC50,[2],< 0.313 µM (active)
same,IC50,[3],25.7 µM (active)
same,IC50,Protein Rev,> 75.4 µM (not active)
same,EC50,Protein RecA,39 µM (active)
same,IC50,[4],24.3 µM (inactive)
same,AC50,[5],79.2 µM (active)
same,IC50,[6],3.05 µM (active)
same,IC50,[7],> 66 µM (inactive)
Cc1ccc(-n2sc3c4c(ccc3c2=O)C(=O)c2ccccc2C4=O)cc1,IC50,[8],2.02 µM (inactive)
same,IC50,[9],> 50 µM (inactive)
same,IC50,Phosphomannomutase 2,> 100 µM (inactive)
CC(=O)Nc1ccc(S(=O)(=O)N(C)CCOCc2ccccc2)cc1,IC50,[10],1.82 µM (active)
same,IC50,[11],1.48 µM (active)
CCC(=O)NC(c1cccs1)c1cc(Cl)c2cccnc2c1O (configuration not stated),EC50,cells [12],> 350 µM (not active)
same,AC50,INS1,1.28 µM (active)
same,AC50,[13],3.61 µM (active)
same,EC50,cells [14],61.3 µM (active)
same,EC50,[15],> 150 µM (inactive)
same,EC50,[16],> 180 µM (inactive)
same,EC50,[17],0.48 µM (active)
same,EC50,[18],34.7 µM (active)
same,EC50,[19],0.692 µM (active)
same,IC50,Exodeoxyribonuclease V,> 119 µM (inactive)
same,CC50,Vero,3.84 µM (active)
same,EC50,[20],1.13 µM (active)
same,IC50,[21],> 119 µM (inactive)
